Reference: patent US5506216A, “Cyclodextrin-biocide complex” (Boehringer Mannheim GmbH, priority 1993, dated 1996)
Where two headings read alike, the source gives them in different places.

How the values were obtained:
Experiment in all cases: MIC of included and free biocides on agar
Type in all cases: cell-based
Settings in all cases: for MIC: read-out: MIC of included and free biocides
[1] = tested on: Candida albicans (yeast)
Protocol: (§1) The spectrum of activity of the individual biocide inclusion complexes was determined on bacteria (gram-positive and gram-negative strains), yeasts and fungi (see Table 1). The values are stated as MIC values (=minimum inhibitory concentration) in mg/ml.
(§2) The determination of the growth of the microorganisms was carried out on M121 medium (Sabouraud, 2% maltose nutrient agar (Merck)) for yeasts and fungi and on M130 medium (standard I nutrient agar (Merck)) for bacteria after 72 hours at 28° C. The amount of active substance in the CD inclusion compounds is less than 10%.

[2] = tested on: Aspergillus oryzae (fungus)
Protocol: as §1, §2

[3] = tested on: Staphylococcus aureus (gram +)
Protocol: as §1, §2

[4] = tested on: Escherichia coli (gram -)
Protocol: as §1, §2

[5] = tested on: Bacillus subtilis (gram +)
Protocol: as §1, §2

[6] = tested on: Pseudomonas fluorescens (gram -)
Protocol: as §1, §2

[7] = M121 medium, 72 hours at 28° C., active substance in complexes <10%
[8] = M130 medium, 72 hours at 28° C., active substance in complexes <10%

Compound | MIC ([1]; 72 h) [µg/mL] | MIC ([2]; 72 h) [µg/mL] | MIC ([3]; 72 h) [µg/mL] | MIC ([4]; 72 h) [µg/mL] | MIC ([5]; 72 h) [µg/mL] | MIC ([6]; 72 h) [µg/mL] | other results
1,2-benzisothiazolin-3-thion [Proxel] | – | – | – | – | – | – | MIC of included and free biocides [1, 7]: 40 µg/mL; MIC of included and free biocides [2, 7]: 75 µg/mL; MIC of included and free biocides [3, 8]: < 40 µg/mL; MIC of included and free biocides [4, 8]: < 40 µg/mL; MIC of included and free biocides [5, 8]: < 40 µg/mL; MIC of included and free biocides [6, 8]: < 40 µg/mL
CNC(=O)c1ccccc1SSc1ccccc1C(=O)NC [Densil P, dithio-2,2'-bis(benzmethylamide)] | – | – | – | – | – | – | MIC [1, 7]: 600 µg/mL; MIC [2, 7]: < 40 µg/mL; MIC [3, 8]: < 40 µg/mL; MIC [4, 8]: 75 µg/mL; MIC [5, 8]: < 40 µg/mL; MIC [6, 8]: 300 µg/mL
N#CSCSC#N [methylenebisthiocyanate] | 20 | 20 | 17.5 | < 40 | 75 | < 40 | –
Oc1ccccc1-c1ccccc1 [o-phenylphenol] | 600 | 300 | 1250 | 1250 | 1250 | 1250 | –
